Source: patent US6537965B1, “Amino-terminal modified parathyroid hormone (PTH) analogs” (The General Hospital Corporation, priority 1998, dated 2003)
Ends that are not written are not given here. Peptide text beside a SMILES is read from it. * marks the point of attachment. Propionyl = CCC(=O)*

Experiments:
Assay type in all cases: cell-based
hPTH-1 receptors [1] = biological target: T1, hPTH-1 receptors (Homo sapiens, UniProt Q03431); assay: AC activation in HKRK B7 cells; set-up: expressed in transfected cells; conditions: HKRK B7 cells (large number of human PTH-1 receptors)
T1 sequence (Q03431 27-593): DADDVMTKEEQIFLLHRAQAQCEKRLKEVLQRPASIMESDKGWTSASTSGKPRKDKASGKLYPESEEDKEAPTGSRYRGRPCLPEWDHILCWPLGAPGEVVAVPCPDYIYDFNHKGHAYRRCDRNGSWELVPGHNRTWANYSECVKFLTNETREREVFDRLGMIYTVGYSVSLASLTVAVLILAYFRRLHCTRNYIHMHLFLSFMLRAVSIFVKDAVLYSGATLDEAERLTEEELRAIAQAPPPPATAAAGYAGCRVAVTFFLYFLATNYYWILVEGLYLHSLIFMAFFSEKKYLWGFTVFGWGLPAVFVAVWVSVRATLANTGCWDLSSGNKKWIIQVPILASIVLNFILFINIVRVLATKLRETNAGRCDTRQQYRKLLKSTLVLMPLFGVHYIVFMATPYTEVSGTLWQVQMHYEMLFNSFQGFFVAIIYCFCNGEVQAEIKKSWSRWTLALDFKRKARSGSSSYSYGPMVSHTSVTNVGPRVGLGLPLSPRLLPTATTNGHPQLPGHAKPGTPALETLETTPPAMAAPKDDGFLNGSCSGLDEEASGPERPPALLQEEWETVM
Text: (§1) The following cell lines were used in these studies. HKRK C53 subclones of LLC-PKI porcine renal epithelial cells which stably express human PTH-1 receptors (150,000 receptors/cell). SaOS-2 cells are transformed human osteosarcoma cells which express relatively few (10,000-20,000 per cell) human PTH-1 receptors. HPR2-7 cells are subclones of LLC-PK1 which express approximately 250,000 recombinant human PTH-2 receptors per cell. HKRK-B7 cells are subclones of LLC-PK which stably express approximately 1 million hPTH-1 receptors per cell. HPR2-22 cells are subclones of LLC-PK1 which express 1.5 million recombinant hPTH-2 receptors per cell. The HPR2-27 and HPR2-22 cell lines were created in the same fashion as the HKRK cells but employing instead type 2 PTH receptor cDNA using the transfection technique of (Bringhurst, F. R., et al., Endocrinology 132(5):2090-2098 (1993); Guo, J., et al., Endocrinology 136(9):3884-3891 (1995)).
(§2) Intracellular cAMP accumulation, PLC activation and PTHR binding affinity were measured as previously reported (Bringhurst, F. R., et al., Endocrinology 132(5):2090-2098 (1993); Guo, J., et al., Endocrinology 136(9):3884-3891 (1995)). Intracellular cAMP accumulation was measured in extracts of cells that were exposed to human PTH peptides in the presence of isobutylmethyxanthine (IBMX, 1 mM) at 37° C. for 15 min. After terminating the reactions by aspiration and freezing in liquid nitrogen, cell monolayers were extracted with 50 mM HCl and cAMP was measured using a radioimmunoassay kit (Dupont-New England Nuclear, Boston, Mass.).

hPTH-1 receptors [2] = biological target: T1, hPTH-1 receptors; assay: cAMP measurements in SaOS-2 cells; set-up: expressed in transfected cells; conditions: SaOS-2 cells, 10,000-20,000 human PTH-1 receptors per cell; up to 1 uM (FIG. 2)
Text: as §1, §2

hPTH-2 receptors [3] = biological target: T2, hPTH-2 receptors (Homo sapiens, UniProt P49190); assay: phospholipase C activation in HPR2-22 cells; conditions: 1.5 million hPTH-2 receptors per cell, 1,000 nM (FIG. 5)
T2 construct: expressed in transfected cells
Text: as §1
(§3) PLC was activated by PTH agonists in the presence of 30 mM LiCl at 37° C. for 30 min after 16 hr of labeling with [^3H]myo-inositol (3uCi/ml) in serum-free medium containing 0.1% bovine serum albumin. The reactions were stopped by rapid aspiration and addition of cold 5% TCA. Water-soluble radiolabeled inositol trisphosphate (IP3) was isolated after ether extraction by ion-exchange chromatography (Guo, J., et al., Endocrinology 136(9):3884-3891 (1995)). In experiments involving HEK 293 cells, cells previously transfected with human PTHR cDNA (in the pcDNA1 expression vector HKRK) using Lipofectamine (Gibco BRL) were labeled with [^3H]myo-inositol and assayed as described above, except that total water-soluble [^3H]inositol polyphosphates were collected as a single fraction from the ion-exchange columns.

hPTH-1 receptors [4] = biological target: T1, hPTH-1 receptors; assay: cAMP accumulation (adenylyl cyclase activation) in HKRK C53 cells; set-up: expressed in transfected cells; conditions: for reduction of AC activity relative to hPTH(1-34): via the human PTH-1 receptor, clonal LLC-PK1 cells; for cyclic AMP accumulation, efficacy compared with native hPTH(1-34)NH2: HKRK C53 cells, about 150,000 hPTH-1 receptors per cell, 10^-9M and 10^-7M peptide (FIG. 1)
Text: as §1, with “HKRK-B7 cells are subclones of LLC-PK which stably express approximately 1 million hPTH-1 receptors per cell. HPR2-22 cells are subclones of LLC-PK1 which express 1.5 million recombinant hPTH-2 receptors per cell.” left out
as §2

hPTH-1 receptors [5] = biological target: T1, hPTH-1 receptors; assay: phospholipase C (PLC) activity in HKRK-B7 cells; set-up: expressed in transfected cells; conditions: for activation of PLC: about 1 million hPTH-1 receptors per cell, 1000 nM (FIG. 4)
Text: as §1, §3

hPTH-2 receptors [6] = biological target: T2, hPTH-2 receptors; assay: cAMP measurements in clonal LLC-PK1 cells (HPR2-7); conditions: for cAMP responsiveness, efficacy compared with hPTH(1-34)NH2 / maximal cyclase activation (maximal response) compared with hPTH(1-34): HPR2-7 cells; for cAMP responsiveness, efficacy compared with hPTH(1-34)NH2: about 250,000 human PTH-2 receptors per cell (FIG. 3); for maximal cyclase activation (maximal response) compared with hPTH(1-34) / EC50 lower than that of hPTH(1-34): human PTH-2 receptor; for maximal cyclase activation (maximal response) compared with hPTH(1-34): very high concentrations (1 micromolar); for EC50: clonal LLC-PK1 cells stably expressing human PTH-2 receptors, read-out: EC50 for activation of AC
Text: as §1, with “HKRK-B7 cells are subclones of LLC-PK which stably express approximately 1 million hPTH-1 receptors per cell. HPR2-22 cells are subclones of LLC-PK1 which express 1.5 million recombinant hPTH-2 receptors per cell.” left out
as §2

T2 sequence (P49190 25-550): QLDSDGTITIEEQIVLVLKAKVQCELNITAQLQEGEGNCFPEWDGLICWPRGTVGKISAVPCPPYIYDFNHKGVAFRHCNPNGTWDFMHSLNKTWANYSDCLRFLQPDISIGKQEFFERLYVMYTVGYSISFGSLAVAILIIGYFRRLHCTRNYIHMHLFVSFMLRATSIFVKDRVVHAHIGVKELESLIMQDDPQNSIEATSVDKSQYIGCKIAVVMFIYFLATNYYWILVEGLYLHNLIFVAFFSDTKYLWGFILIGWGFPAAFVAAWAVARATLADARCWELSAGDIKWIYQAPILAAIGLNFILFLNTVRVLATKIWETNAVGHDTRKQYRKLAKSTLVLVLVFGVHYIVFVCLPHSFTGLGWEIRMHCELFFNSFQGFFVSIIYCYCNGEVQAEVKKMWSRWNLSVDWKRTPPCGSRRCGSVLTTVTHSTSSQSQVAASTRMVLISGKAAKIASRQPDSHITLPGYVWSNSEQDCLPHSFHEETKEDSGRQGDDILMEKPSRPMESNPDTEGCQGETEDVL

Compound	activation of AC compared with hPTH-(1-34) (hPTH-1 receptors [1])	cyclase (cAMP) activity compared with control hPTH(1-34) (hPTH-1 receptors [2])	activation of phospholipase C (hPTH-2 receptors [3])	reduction of AC activity relative to hPTH(1-34) (hPTH-1 receptors [4]) [fold]	activation of PLC (hPTH-1 receptors [5])	cAMP responsiveness, efficacy compared with hPTH(1-34)NH2 (hPTH-2 receptors [6])	maximal cyclase activation (maximal response) compared with hPTH(1-34) (hPTH-2 receptors [6]; listed as desamino-[Ala^1])	maximal cyclase activation (maximal response) compared with hPTH(1-34) (hPTH-2 receptors [6]; listed as desamino-[Ala^1]hPTH(1-34))	EC50 (hPTH-2 receptors [6]) [nM]	EC50 lower than that of hPTH(1-34) (hPTH-2 receptors [6]) [fold]	maximal cyclase activation (maximal response) compared with hPTH(1-34) (hPTH-2 receptors [6]; listed as desamino-[Gly^1])	maximal cyclase activation (maximal response) compared with hPTH(1-34) (hPTH-2 receptors [6]; listed as desamino-[Gly^1]hPTH(1-34))	cyclic AMP accumulation, efficacy compared with native hPTH(1-34)NH2 (hPTH-1 receptors [4])	PLC activity as % of the hPTH(1-34) maximum (hPTH-1 receptors [5]; 1000 nM)
CCC(=O)N[C@H](C(=O)N[C@@H](CO)C(=O)N[C@@H](CCC(=O)O)C(=O)N[C@H](C(=O)N[C@@H](CCC(N)=O)C(=O)N[C@@H](CC(C)C)C(=O)N[C@@H](CCSC)C(=O)N[C@@H](Cc1c[nH]cn1)C(=O)N[C@@H](CC(N)=O)C(=O)N[C@@H](CC(C)C)C(=O)NCC(=O)N[C@@H](CCCCN)C(=O)N[C@@H](Cc1c[nH]cn1)C(=O)N[C@@H](CC(C)C)C(=O)N[C@@H](CC(N)=O)C(=O)N[C@@H](CO)C(=O)N[C@@H](CCSC)C(=O)N[C@@H](CCC(=O)O)C(=O)N[C@@H](CCCNC(=N)N)C(=O)N[C@H](C(=O)N[C@@H](CCC(=O)O)C(=O)N[C@@H](Cc1c[nH]c2ccccc12)C(=O)N[C@@H](CC(C)C)C(=O)N[C@@H](CCCNC(=N)N)C(=O)N[C@@H](CCCCN)C(=O)N[C@@H](CCCCN)C(=O)N[C@@H](CC(C)C)C(=O)N[C@@H](CCC(N)=O)C(=O)N[C@@H](CC(=O)O)C(=O)N[C@H](C(=O)N[C@@H](Cc1c[nH]cn1)C(=O)N[C@@H](CC(N)=O)C(=O)N[C@@H](Cc1ccccc1)C(N)=O)C(C)C)C(C)C)[C@@H](C)CC)C(C)C [desamino-[Ala^1]hPTH(1-34)NH2] (Propionyl-VSEIQLMHNLGKHLNSMERVEWLRKKLQDVHNF-NH2)	approximately equipotent	minimal activity	greater maximal activation	10	no activation of PLC	enhanced efficacy	substantially greater	twice	10	3				
Ac-VSEIQLMHNLGKHLNSMERVEWLRKKLQDVHNF-NH2 [desamino-[Gly^1]hPTH(1-34)NH2]	approximately equipotent	minimal activity	greater maximal activation	10	no activation of PLC	enhanced efficacy			10	3	substantially greater	twice		
[Ala^1]hPTH(1-34)NH2: hPTH-(1-34) with substitution of Ala^1 for Ser^1 (AVSEIQLMHNLGKHLNSMERVEWLRKKLQDVHNF-NH2; not fully specified (residue 1); UniProt P01270 32-65, looked up, variant S1A)		comparable to that of the control peptide			fill agonists								nearly the same efficacy	
[Gly^1]hPTH(1-34)NH2: hPTH-(1-34) with substitution of Gly^1 for Ser^1 (GVSEIQLMHNLGKHLNSMERVEWLRKKLQDVHNF-NH2; not fully specified (residue 1); UniProt P01270 32-65, looked up, variant S1G)		comparable to that of the control peptide			only a partial agonist								nearly the same efficacy	approximately 50%
